Measurements published in patent US8546403B2, “Compounds that modulate intracellular calcium” (Calcimedica, Inc., priority 2010, dated 2013).

Assay: Microsomal stability of compounds (liver microsomes, LC/MS/MS)
Type: in vitro ADME
Conditions: 5 μM test compound, 1 mg/mL microsomal protein, 37° C. up to 60 minutes, species and Phase I / Phase I+II not given
Description: Microsomal Stability of Compounds Described Herein
Liver microsomes are purchased from XenoTech, LLC (Lenexa, Kans.). Other chemicals are obtained from Sigma-Aldrich (Milwaukee, Wis.). Solvents for LC/MS/MS mobile phases and disposable labware are obtained from various vendors.
Study Protocol Phase I Only (Oxidative Metabolism in the Presence of NADPH-Regenerating System but without UDPGA):
A mixture of the test compound and liver microsomes (475 μL total) are pre-incubated for 5 minutes at 37° C. The reactions are initiated by the addition of 25 μL of the co-factor NADPH regenerating system) and are allowed to proceed at 37° C. for up to 60 minutes. The final concentrations in the assay were: 5 μM test compound, 1 mg/mL microsomal protein, 1 mM NADP+, 5 mM glucose-6-phosphate and 1 U/mL glucose-6-phosphate dehydrogenase in 50 mM potassium phosphate (pH 7.4) containing 3.3 mM MgCl2 and 100 μM EDTA. […] At pre-determined time points, the reactions are terminated by removing 50 μL-aliquots and quenching them with […] of ACN mixture containing 0.5 μM of the internal standard (carbamazepine) to achieve protein precipitation. The samples are vortexed, centrifuged at 4000 rpm (3400 rcf) for 15 minutes, and clear supernatants are analyzed by LC/MS/MS.
Phase I and II: (Oxidative Metabolism and Conjugation in the Presence of NADPH-Regenerating System and UDPGA):
The reaction mixtures are prepared similar to what is described above, except 6.6 mM UDPGA, 6.25 μg/mL alamethicin, and 1.25 mM of D-Saccharic acid 1,4-lactone (final assay concentrations) are also added together with the NADPH-regenerating system. Midazolam and 4-methylumbelliferone are used as positive controls for Phase I and Phase II, respectively.
Bioanalysis is conducted using a non-GLP LC/MS/MS method. Calibration curves are not generated and the ratios of the test compound peak area to the internal standard peak area are used to determine the relative amounts of test compound remaining at each time point.

| Compound | Microsomal t ½ (min) |
| --- | --- |
| O=C(Nc1ccc(-c2cc3c(cc2Cl)OC(F)(F)O3)cn1)c1c(F)cccc1F [Compound 3] | Stable (Stable is defined herein as less than 10% degradation) |
| O=C(Nc1ccc(-c2cc3c(cc2Cl)OC(F)(F)O3)cn1)c1ccncc1Cl [Compound 8] | Stable (Stable is defined herein as less than 10% degradation) |
| O=C(Nc1ccc(-c2cc3c(cc2Cl)OC(F)(F)O3)cn1)c1c(F)cncc1F [Compound 9] | Stable (Stable is defined herein as less than 10% degradation) |
| O=C(Nc1cnc(-c2cc3c(cc2Cl)OC(F)(F)O3)cn1)c1ccccc1F [Compound 13] | Stable (Stable is defined herein as less than 10% degradation) |
| Cc1nnsc1C(=O)Nc1cnc(-c2cc3c(cc2Cl)OC(F)(F)O3)cn1 [Compound 14] | Stable (Stable is defined herein as less than 10% degradation) |
| Cc1ccccc1C(=O)Nc1cnc(-c2cc3c(cc2Cl)OC(F)(F)O3)cn1 [Compound 17] | Stable (Stable is defined herein as less than 10% degradation) |
| O=C(Nc1cnc(-c2cc3c(cc2Cl)OC(F)(F)O3)cn1)c1cccc(F)c1F [Compound 18] | Stable (Stable is defined herein as less than 10% degradation) |
| Cc1ccc(F)cc1C(=O)Nc1cnc(-c2cc3c(cc2Cl)OC(F)(F)O3)cn1 [Compound 19] | Stable (Stable is defined herein as less than 10% degradation) |
| Cc1cc2c(cc1-c1ccc(NC(=O)c3c(F)cccc3F)nc1)OC(F)(F)O2 [Compound 21] | Stable (Stable is defined herein as less than 10% degradation) |
| Cc1cc2c(cc1-c1cnc(NC(=O)c3c(F)cccc3F)cn1)OC(F)(F)O2 [Compound 23] | Stable (Stable is defined herein as less than 10% degradation) |
| Cc1cc2c(cc1-c1cnc(NC(=O)c3ccccc3F)cn1)OC(F)(F)O2 [Compound 25] | Stable (Stable is defined herein as less than 10% degradation) |
| Cc1cc2c(cc1-c1cnc(NC(=O)c3c(F)cncc3F)cn1)OC(F)(F)O2 [Compound 28] | Stable (Stable is defined herein as less than 10% degradation) |
| CC(C)C(=O)Nc1ccc(-c2cc3c(cc2Cl)OC(F)(F)O3)cn1 [Compound 34] | Stable (Stable is defined herein as less than 10% degradation) |
| Cc1cc2c(cc1-c1ccc(NC(=O)c3c(F)cncc3F)nc1)OC(F)(F)O2 [Compound 35] | Stable (Stable is defined herein as less than 10% degradation) |

Same assay, conditions: pH 7.4, 5 μM test compound, 1 mg/mL microsomal protein, 37° C. up to 60 minutes, species and Phase I / Phase I+II not given, read-out: Microsomal t ½

| Compound | half-life at 5 μM [min] |
| --- | --- |
| O=C(Nc1ccc(-c2cc3c(cc2Br)OCO3)cn1)c1c(F)cccc1F [Compound 1] | 6 |
| O=C(Nc1ccc(-c2cc3c(cc2Br)OCO3)cc1)c1c(F)cccc1F [Compound 2] | 3 |
| O=C(Nc1ccc(-c2cc3c(cc2Cl)OC(F)(F)O3)cn1)c1ccncc1F [Compound 4] | 281 |
| O=C(Nc1ccc(-c2cc3c(cc2Cl)OC(F)(F)O3)cn1)c1ccncc1Cl [Compound 7] | 339 |
| Cc1cc2c(cc1-c1ccc(NC(=O)c3c(F)cccc3F)nc1)OCO2 [Compound 10] | 22 |
| [2H]C1([2H])Oc2cc(C)c(-c3ccc(NC(=O)c4c(F)cccc4F)nc3)cc2O1 [Compound 15] | 36 |
| [2H]C1([2H])Oc2cc(C)c(-c3cnc(NC(=O)c4c(F)cccc4F)cn3)cc2O1 [Compound 16] | 17 |
| Cc1c(F)cccc1C(=O)Nc1cnc(-c2cc3c(cc2Cl)OC(F)(F)O3)cn1 [Compound 20] | 74 |
| Cc1ccccc1C(=O)Nc1ccc(-c2cc3c(cc2C)OC(F)(F)O3)cn1 [Compound 22] | 109 |
| Cc1ccccc1C(=O)Nc1cnc(-c2cc3c(cc2C)OC(F)(F)O3)cn1 [Compound 24] | 67 |
| Cc1ccc(F)cc1C(=O)Nc1cnc(-c2cc3c(cc2C)OC(F)(F)O3)cn1 [Compound 26] | 47 |
| O=C(Nc1ccc(-c2cc3c(cc2Cl)OC(F)(F)O3)cn1)C1CCCC1 [Compound 27] | 40 |
| O=C(Nc1cnc(-c2cc3c(cc2Cl)OC(F)(F)O3)cn1)C1CCCC1 [Compound 29] | 38 |
| O=C(Nc1ccc(-c2cc3c(cc2Cl)OC(F)(F)O3)cn1)C1CCC1 [Compound 30] | 11 |
| O=C(CCc1ccccc1)Nc1ccc(-c2cc3c(cc2Cl)OC(F)(F)O3)cn1 [Compound 31] | 26 |
| CCCC(=O)Nc1ccc(-c2cc3c(cc2Cl)OC(F)(F)O3)cn1 [Compound 32] | 19 |
| O=C(Nc1ccc(-c2cc3c(cc2Cl)OC(F)(F)O3)cn1)C1CC1 [Compound 33] | 81 |
